The text below walks through data of patent publication US20120232107A1, “NON-PEPTIDE ANTAGONISTS OF GASTRIN RELEASING PEPTIDE” (The Government of the United States of America as …, priority 2003, published 2012).

SMILES strings stand for the structures. Entries after “also recorded” stand apart in the source; their conditions may differ.

One experiment addresses T1, GRP (Homo sapiens, UniProt P07492).
T1 construct: GRP is a 27 amino acid peptide; purchased Peninsula (S. Carlos, Calif.); host or cells: synthetic peptide
T1 sequence (P07492 24-50 limits assumed): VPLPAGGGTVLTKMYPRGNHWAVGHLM
The experiment can be described thus: IP3 analysis for GRP in H-1299 cells. The experiment is classed as cell-based. To be noted: peptide GRP; IP3 or Ca2+ levels induced by GRP in H1299 cells. The protocol: This cell line was obtained from ATCC and cultured as the other cell lines. The signal transduction pathway for GRP includes elevation of intracellular levels of IP3 and Ca^2+ and these were investigated as previously shown (Ryan et al. (1998) J. Biol. Chem., 273, 13613-13624). Briefly, to quantify IP3, contents cells were subcultured into 24-well plates (5×10^4 cells/well). After a 24 h incubation period at 37° C., the cells were incubated with 3 μCi/ml myo-[^3H]inositol in growth medium supplemented with 2% FBS for an additional 24 h. Incubation volumes were 500 μl of assay buffer/well containing 135 mM sodium chloride, 20 mM HEPES (pH 7.4), 2 mM calcium chloride, 1.2 mM magnesium sulfate, 1 mM EGTA, 20 mM lithium chloride, 11.1 mM glucose, and 0.05% BSA (v/v) with or without any of the molecules studied at 37° C. for 30 min. Experiments were terminated with 1 ml of ice-cold hydrochloric acid/methanol (0.1%, v/v). [^3H]IP3 was eluted off Dowex AG-1-X8 anion exchange columns with 2 ml of 1 mM ammonium formate and 100 mM formic acid. Each of the eluates was collected and mixed with 10 ml of scintillation mixture (BioSafe, Research Products International Corp, Mount Prospect, Ill.), and the radioactivity was measured in a LS 3801 β counter (Beckman, Somerset, N.J.).

The test system of experiment [1] is Bovine retinal microvascular endothelial cells. The experiment can be described thus: Cord formation assay in Matrigel. The experiment is classed as cell-based. The protocol:
Formation of tube-like structures was performed as described in Kubota et al. (1988) J. Cell Biol. 107, 1589-1598; Nam et al. (2003) Phytother. Res. 17, 107-111; and Macpherson et al. (2003) Mol Cancer Ther 2, 845-54. Briefly, a thin layer of Matrigel (Collaborative Biomedical Products, Bedford, Mass.) was allowed to polymerize at the bottom of 24-well plates. […] After an overnight incubation at 37° C., the tubular structures were photographed (3 pictures per well at 10×) and the number of knots per photographic field were counted as a measure of lattice complexity.

A further experiment relates to GRP-induced angiogenesis. Kind of experiment: Directed in vivo angiogenesis assay (DIVAA). Also noted: species or system mice. The note with it: 1 nM GRP in angioreactors, nude mice, 11 days. On the procedure: Analysis and quantitation of angiogenesis was done using DIVAA as previously described (Martinez et al. (2002) J Natl Cancer Inst 94, 1226-37). Briefly, 10 mm long surgical-grade silicone tubes with only one end open (angioreactors) were filled with 20 μl of matrigel alone or mixed with GRP and the small molecules at the indicated concentrations. After the matrigel solidified, the angioreactors were implanted into the dorsal flanks of athymic nude mice (NCI colony). After 11 days, the mice were injected iv with 25 mg/ml FITC-dextran (100 μl/mouse, Sigma) 20 min before removing angioreactors. Quantitation of neovascularization in the angioreactors was determined as the amount of fluorescence trapped in the implants and was measured in a HP Spectrophotometer (Perkin Elmer).

Experiment [2] concerns lung cancer cell line H1299. The experiment can be described thus: Proliferation assay (growth inhibition MTT). The experiment is classed as cell-based. The note with it: H1299, serum-free medium, 5 days. The protocol:
A. Tumor cells (from a lung cancer cell line, H1299) were seeded in 96-well plates at a density of 2.0×10^5 cells per well in serum-free medium containing different concentrations of the test agent, the small molecule inhibitor compound XV′ (77427). After 5 days in culture, the number of viable cells per well was estimated by the growth inhibition MTT assay (as reported in Iwai et al. (1999) Lung Cancer 23, 209-22).

In a further experiment the test system is cell line A345. The experiment can be described thus: Clonogenic assay in soft agar. The experiment is classed as cell-based. The note with it: A345, 3 weeks. On the procedure:
B. Cells from the cell line […] were grown in substrate-independent conditions (clonogenic assay) as previously published (Iwai et al., supra).

Another experiment relates to H1299 xenograft. Kind of experiment: In vivo tumor growth (xenograft experiment). Also noted: species or system mice. The protocol: Thirty female athymic nude mice from the NIH colony in Frederick (MD) were injected subcutaneously with 1.0×10^7 H1299 cells/mouse. Two weeks later, all the mice had developed palpable tumors under the skin and at this time they were randomly divided in three groups. Three times a week, each individual tumor was measured (length, height, thickness) and every mouse received an intratumoral injection, according to their group. Group 1 (control) received 100 μl PBS (negative control); group 2 received 100 μl 0.5 μM compound XV′ (77427) in PBS; and group 3 received 100 μl 5 μM compound XV′ (77427) in PBS. When the tumor burden became unbearable (larger than 2000 mm^3), the mice were sacrificed.

For the compound `Nc1nc(Cl)cc(NCCO)n1` [compound 77427], the “Action on second messengers” value at GRP was “Antagonists”. For the same compound, the “number of knots per photographic field” value in experiment [1] (5 nM GRP and 0.5 μM compound added together) amounted to 12±4. In addition, the “complexity of the tubular lattice” value in experiment [1] (5 nM GRP plus 0.5 μM compound) is “marked decrease; also recorded: reduces network complexity; also recorded: greatly reduced”. Further, in experiment [1] (GRP-induced cord formation), the “Biological activity (cord formation)” value is reported as “Inhibits cord”. Besides, the “inhibition of GRP-induced angiogenesis” value with GRP-induced angiogenesis is listed as “dose-dependent inhibition”; in the experiment with GRP-induced angiogenesis (listed as XV′), “inhibited”. For the same compound, the “growth inhibitory action on lung cancer cells (MTT)” value in experiment [2] is “modest dose-dependent growth inhibitory action”. Also, the “number of colonies in soft agar” value with cell line A345 was “reduces the number of colonies”. Also, the results for the tumor size result with H1299 xenograft (after a single intratumoral injection) and with H1299 xenograft (after the second intratumoral injection) were “significantly reduced” and “all but disappeared”, respectively.
